The record followed here is ChEMBL document CHEMBL1201862, “PubChem BioAssay data set” (2004).

Series [1] can be described thus: inhibitors of non-replicating M. tuberculosis, dose response, luciferase, dry powder (AID 651619). The note with it: Mycobacterium tuberculosis. The series is classed as functional.
Series [2] can be described thus: inhibitors of non-replicating M. tuberculosis, dose response, luciferase, dry powder (AID 651620). To be noted: Mycobacterium tuberculosis. Type of series: functional.
Series [3] deals with T1, Matrix metalloproteinase-14 (Homo sapiens, UniProt P50281). Put plainly: Dose Response confirmation of uHTS hits for a small molecule inhibitors of MT1-MMP activation in a fluorescence assay set 1. The series is classed as functional.
Series [4] concerns the target T1, Matrix metalloproteinase-14. Put plainly: SAR confirmation of uHTS hits for a small molecule inhibitors of MT1-MMP activation in a fluorescence assay. The series is classed as functional.
Series [5] is described as follows: IGROV1 cell killing – plate reader, dry powder samples, PAX8 inhibitor project, dose response (AID 743043). The note with it: IGROV-1. Type of series: functional, cell-based.
Series [6] is described as follows: OVCAR-3 cell viability loss – plate reader, dry powder samples, PAX8 inhibitor project, dose response (AID 743044). Type of series: functional, cell-based.
The next series concerns the target Paired box protein Pax-8 (Homo sapiens, UniProt Q06710). Nature of the series: PAX8 transcriptional activity inhibition in RMG-I – RMG-I cells, luciferase, cherry-pick, dose response (AID 687027).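 Also: luciferase reporter driven by Pax8 target thyroperoxidase promoter measured by SteadyGlo luminescence.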 The series is classed as functional, cell-based.
The nature of series [7]: general cell-killing toxicity readout – plate reader, dry powder samples, cytotoxicity control for PAX8 inhibitor project, dose response (AID 743021). The series is classed as functional, cell-based.
Series [8] in a line: OVCAR8 cell viability loss – plate reader, dry powder samples, PAX8 project, dose response (AID 743197). The series is classed as functional, cell-based. The note with it: OVCAR-8.
Series [9] addresses NAD-dependent protein deacylase sirtuin-5, mitochondrial (Homo sapiens, UniProt Q9NXA8). Put plainly: blockers of sirtuin-5 peptide desuccinylation – biochemical, fluorescence imaging, cherry-pick, set 6, dose response (AID 720597).
A short description of series [10]: viability of BHK-21 cells – cell-based, secondary screen, cytotoxicity control for flavivirus guanylyltransferase probe project (AID 624078). Type of series: functional.
Series [11] can be described thus: non-specific 3'UTR reporter inhibition in Clone20-Shn3RL – cell-based, Renilla luciferase, cherry-picked, counter-screen for Shn3 inhibitor project, dose response (AID 624133). The series is classed as functional. In general terms: Counterscreens check selectivity or assay interference.
In another series the target is Galanin receptor type 3 (Homo sapiens, UniProt O60755). Nature of the series: Fluorescence-based cell-based primary high throughput dose response assay to identify antagonists of the Galanin Receptor 3 (GalR3). The series is classed as functional.
Series [12] is described as follows: loss of viability in HepG2 cells – cell-based, CellTiter-Glo, cherry-picked, cytotoxicity control for Shn3 inhibitor project, dose response (AID 624134). The series is classed as functional. In general terms: In ATP-based viability assays light output follows the ATP content of the culture.
The nature of series [13]: reduction of Shn3 3'UTR-driven luciferase in osteoblasts – cell-based, Clone20 osteoblasts, firefly luciferase, cherry-picked, dose response (AID 624132).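 Also: firefly luciferase luminescence from reporter carrying the Shn3 3'UTR in osteoblasts.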 Type of series: functional.
Series [14] deals with COUP transcription factor 2 (Homo sapiens, UniProt P24468). Nature of the series: Luminescence-based cell-based high throughput dose response assay to identify inhibitors of COUP-TFII (NR2F2). Type of series: functional.
Series [15] in a line: HEK-293T cell viability reduction – luminescence, B-cell screen hits, cytotoxicity control for BCR NF-kB inhibitor project, dose response (AID 489021).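 Also: HEK-293T cells carrying an NF-kB luciferase reporter; cells exposed to compound for about 14 hours before viability readout.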 Type of series: functional, cell-based.
Series [16] can be described thus: off-target signal loss in HeLa-CEM21 co-culture – HeLa F-luc CTL cells, cherry-picked, counter-screen for HIV-1 Env fusion inhibitor project, dose response (AID 652040).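 Also: potency for signal decrease marking cytotoxic or nonspecific inhibition.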 Type of series: functional, cell-based.
Series [17] is described as follows: cells. The note with it: HEK-CNG. The series is classed as functional, cell-based.
Series [18] in a line: HIV-1 AD8 envelope cell-cell fusion blockers – cherry-pick, dose response (AID 652062).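 Also: luciferase signal from cell-cell fusion driven by HIV-1 clade B AD8 Env; potency is for inhibitors of fusion seen as a drop in luminescence.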 Type of series: functional, cell-based.
Series [19] deals with Protein-tyrosine kinase 2-beta (Homo sapiens, UniProt Q14289).
Series [20] can be described thus: cells.
The next series concerns the target Cytochrome P450 2C9 (Homo sapiens, UniProt P11712).
The target in another series is Cytochrome P450 2D6 (Homo sapiens, UniProt P10635).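 Also: CYP2D6 member of a cytochrome P450 panel assay.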
For the next series, the target named is Major prion protein (Homo sapiens, UniProt P04156). The series is classed as functional, cell-based.
The nature of series [21]: anti-trypanosomal activity in BESM host cells – imaging, CA-I/72 strain, bovine embryo skeletal muscle, dry powder, dose response (AID 651885). Type of series: functional, cell-based.
In series [22] the target is Kappa-type opioid receptor (Homo sapiens, UniProt P41145). Nature of the series: kappa opioid receptor antagonism potency – cell-based, fluorescence, dose response, late-stage follow-up (AID 652032). Type of series: functional.

Calls of active or inactive are those of the source.
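For EC50 in this document: target is galanin receptor GalR3 read with a cAMP biosensor in HEK293 cells.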

Broadly, the IC90 is the point of the concentration-response curve where the effect stands at 90%. With `O=S(=O)(Cc1ccccc1)c1nnc(-c2ccccc2)o1`, the IC90 in [1] and in series [2] was 2 µM (active) throughout.
Broadly, the IC50 is the concentration at which inhibition is half-maximal. On to `CCn1c(=O)c(=O)[nH]c2cc(C(=O)NC3CCCc4ccccc43)ccc21` (stereo not drawn), for which the IC50 in [3] was 26.7 µM (inactive); in [4] it was 29.1 µM (inactive).
What is called AC50 is the midpoint of the concentration-response curve, whichever way the signal moves. For the molecule `C[C@@H]1CCCCO[C@H](CN(C)Cc2ccc(Cl)c(Cl)c2)[C@@H](C)CN([C@@H](C)CO)C(=O)c2cc(NS(=O)(=O)c3ccccc3)ccc2O1`, the AC50 is 44.6 µM (active) in series [5], 21.2 µM (active) in [6], 5 µM (active) at Paired box protein Pax-8 and 2.38 µM (active) in series [7].
For the molecule `C[C@@H]1CCCCO[C@H](CN(C)Cc2ccc(C(F)(F)F)cc2)[C@@H](C)CN([C@@H](C)CO)C(=O)c2cc(NS(=O)(=O)c3ccccc3)ccc2O1`, the AC50 in series [8] was 67.5 µM (active); in series [9], 23.5 µM (active); at Paired box protein Pax-8, 4.17 µM (active).
Usually CC50 stands for the concentration that lowers cell viability or growth by half. In the case of `Cn1c(=O)c2[nH]c(-c3ccc(Cl)cc3)c(O)c2n(C)c1=O`, the CC50 in series [10] is > 100 µM (active).
One may read the EC50 as the concentration that produces a half-maximal response. On to `Cc1cc(C)c(CN2CCN(C(=O)Cn3cnc4c(NCc5ccccc5)ncnc43)CC2)c(C)c1`, for which the AC50 was 0.818 µM (active) in [11]; 0.773 µM (active) in series [12]; 0.417 µM (active) in [13]; 27.3 µM (active) in series [16]; 1.59 µM (active) in series [18]. The IC50 on Galanin receptor type 3 was 0.363 µM (active); in series [14], 2.71 µM (active); in series [15] it was > 80 µM (inactive). In addition, the EC50 in “cells [17]” is > 29.9 µM (inactive).
With `CCc1nc(SCC(=O)NNC(=O)C2CCCCC2)c2ccccc2n1`, the figures for the IC50 (in series [19]; in “cells [20]”; at Major prion protein) were > 69.5 µM (not active), > 138 µM (inactive) and 1.18 µM (active), respectively. The AC50 result at Cytochrome P450 2C9 and at Cytochrome P450 2D6 was “inconclusive” each time.
Consider `CC(C)N1C[C@H](C)[C@@H](CN(C)C(=O)OC(C)(C)C)Oc2c(NC(=O)c3ccccc3)cccc2C1=O`, for which, in [21], the IC50 was > 20 µM (inactive).
With `COC(=O)c1cc(Br)cnc1N1CCC(OC2CCCCC2O)CC1` (stereo not drawn), the IC50 in series [22] is > 50 µM (inactive).
